Source: the supplement of paper PMC10307832

What was measured:
Assay in all cases: relative viability (nuclei count vs DMSO), 5 days (fraction); higher = more cells survive
Ruxolitinib + Linsitinib = compound: N#CC[C@H](C1CCCC1)n1cc(-c2ncnc3[nH]ccc23)cn1 [Ruxolitinib] + C[C@]1(O)C[C@@H](c2nc(-c3ccc4ccc(-c5ccccc5)nc4c3)c3c(N)nccn32)C1 [Linsitinib] (partner 1 µM)
How it was run: (§1)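 After 5 days of treatment, lung cancer cells in 1536-well plates were fixed and stained in a single step (final 0.05% Triton X-100, 1% formaldehyde, 1 ug/ml Hoechst) and their nuclei counted on 4× images. Treatment had been applied by pin tool the day after seeding as one drug alone or as a fixed anchor-drug dose with five library-drug doses (not always all listed) in √10 steps. Relative viability is the nuclei count of treated wells divided by that of vehicle wells, and values are medians of duplicate plates.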

Ruxolitinib + Tozasertib = compound: N#CC[C@H](C1CCCC1)n1cc(-c2ncnc3[nH]ccc23)cn1 [Ruxolitinib] + Cc1cc(Nc2cc(N3CCN(C)CC3)nc(Sc3ccc(NC(=O)C4CC4)cc3)n2)n[nH]1 [Tozasertib] (partner 0.1 µM)
How it was run: as §1

Vismodegib + Lapatinib = compound: CS(=O)(=O)c1ccc(C(=O)Nc2ccc(Cl)c(-c3ccccn3)c2)c(Cl)c1 [Vismodegib] + CS(=O)(=O)CCNCc1ccc(-c2ccc3ncnc(Nc4ccc(OCc5cccc(F)c5)c(Cl)c4)c3c2)o1 [Lapatinib] (partner 2 µM)
How it was run: as §1

VE-821 + Crizotinib = compound: CS(=O)(=O)c1ccc(-c2cnc(N)c(C(=O)Nc3ccccc3)n2)cc1 [VE-821] + C[C@@H](Oc1cc(-c2cnn(C3CCNCC3)c2)cnc1N)c1c(Cl)ccc(F)c1Cl [Crizotinib] (partner 1 µM)
How it was run: as §1

Cell Line | relative viability (Ruxolitinib + Linsitinib; first compound 0.253 µM) | relative viability (Ruxolitinib + Linsitinib; first compound 0.8 µM) | relative viability (Ruxolitinib + Linsitinib; first compound 2.53 µM) | relative viability (Ruxolitinib + Linsitinib; first compound 8 µM) | relative viability (Ruxolitinib + Tozasertib; first compound 0.253 µM) | relative viability (Ruxolitinib + Tozasertib; first compound 0.8 µM) | relative viability (Ruxolitinib + Tozasertib; first compound 2.53 µM) | relative viability (Ruxolitinib + Tozasertib; first compound 8 µM) | relative viability (Vismodegib + Lapatinib; first compound 0.08 µM) | relative viability (Vismodegib + Lapatinib; first compound 0.253 µM) | relative viability (Vismodegib + Lapatinib; first compound 0.8 µM) | relative viability (Vismodegib + Lapatinib; first compound 2.53 µM) | relative viability (Vismodegib + Lapatinib; first compound 8 µM) | relative viability (VE-821 + Crizotinib; first compound 0.08 µM) | relative viability (VE-821 + Crizotinib; first compound 0.253 µM) | relative viability (VE-821 + Crizotinib; first compound 0.8 µM) | relative viability (VE-821 + Crizotinib; first compound 2.53 µM) | relative viability (VE-821 + Crizotinib; first compound 8 µM) | relative viability (Ruxolitinib + Linsitinib; first compound 0.08 µM) | relative viability (Ruxolitinib + Tozasertib; first compound 0.08 µM)
NCI-H650 | 0.795 | 1.11 | 0.677 | 0.55 | 0.834 | 0.788 | 0.554 | 0.603 | 0.967 | 0.695 | 0.623 | 0.841 | 0.899 | 0.969 | 0.969 | 0.675 | 0.889 | 0.642 |  | 
NCI-H661 | 0.639 | 0.708 | 0.498 | 0.591 | 0.354 | 0.365 | 0.363 | 0.352 | 0.464 | 0.488 | 0.534 | 0.483 | 0.493 | 1.08 | 0.942 | 1.05 | 0.997 | 1.06 | 0.598 | 0.358
NCI-H727 | 0.272 | 0.237 | 0.228 | 0.427 | 0.818 | 0.674 | 0.567 | 0.589 | 0.814 | 0.653 | 0.585 | 0.826 | 0.874 | 0.866 | 0.804 | 0.898 | 0.739 | 0.394 | 0.283 | 0.663
NCI-H838 | 0.903 | 0.87 | 0.534 | 0.36 | 0.23 | 0.256 | 0.223 | 0.225 | 0.888 | 1.01 | 0.987 | 0.99 | 1.09 | 0.96 | 0.721 | 0.688 | 0.875 | 0.757 | 1.03 | 0.299
NCI-H1355 | 0.841 | 0.843 | 0.753 | 0.716 | 0.564 | 0.571 | 0.594 | 0.574 | 0.93 | 0.923 | 0.844 | 0.951 | 0.957 | 1.22 | 1.11 | 0.993 | 1.04 | 0.768 | 0.794 | 0.575
NCI-H1437 | 0.994 | 1.02 | 0.966 | 0.653 | 0.39 | 0.406 | 0.413 | 0.422 | 0.741 | 0.791 | 0.783 | 0.816 | 0.762 | 1.1 | 0.906 | 0.864 | 1.01 | 0.823 | 0.983 | 0.457
NCI-H1651 | 0.864 | 1 | 0.929 | 0.964 | 0.637 | 0.64 | 0.573 | 0.682 | 0.869 | 0.867 | 0.852 | 0.83 | 0.89 | 0.844 | 0.914 | 0.853 | 0.837 | 0.872 | 0.949 | 0.714
NCI-H1666 | 0.949 | 0.933 | 0.776 | 0.902 | 0.579 | 0.587 | 0.585 | 0.521 | 0.72 | 0.616 | 0.453 | 0.558 | 0.879 | 1.03 | 1.06 | 1.1 | 0.895 | 0.635 | 0.739 | 0.596
NCI-H1734 | 0.752 | 0.794 | 0.8 | 0.821 | 0.25 | 0.281 | 0.209 | 0.223 | 1.04 | 1.02 | 0.96 | 0.957 | 1 | 0.827 | 0.649 | 0.585 | 0.726 | 0.541 | 0.852 | 0.332
NCI-H1755 | 0.961 | 0.971 | 0.9 | 0.817 | 0.525 | 0.622 | 0.616 | 0.557 | 1 | 1 | 1.06 | 1.02 | 1.04 | 0.969 | 0.841 | 0.69 | 0.835 | 0.722 | 1 | 0.561
NCI-H1915 | 1.05 | 1.05 | 1.04 | 1.03 | 0.434 | 0.464 | 0.398 | 0.419 | 0.936 | 0.975 | 0.995 | 0.901 | 0.978 | 0.892 | 0.856 | 0.883 | 0.874 | 0.846 | 1.12 | 0.462
NCI-H1944 | 1.12 | 1.28 | 1.15 | 1.21 | 0.263 | 0.24 | 0.292 | 0.266 | 0.925 | 0.746 | 0.801 | 0.79 | 0.972 | 1.25 | 1.05 | 0.956 | 1.14 | 0.696 | 1.23 | 0.248
NCI-H1975 | 1.03 | 1.05 | 0.71 | 0.587 | 0.78 | 0.682 | 0.767 | 0.389 | 0.848 | 0.819 | 0.966 | 0.803 | 0.946 | 1.02 | 0.944 | 0.777 | 0.758 | 0.652 | 1.03 | 0.724
NCI-H1993 | 0.783 | 0.779 | 0.801 | 0.796 | 0.618 | 0.643 | 0.631 | 0.551 | 0.745 | 1.02 | 0.806 | 0.788 | 0.777 | 0.897 | 0.844 | 0.809 | 0.852 | 0.686 | 0.785 | 0.585
NCI-H2009 | 1.23 | 1.28 | 1.02 | 0.904 | 0.754 | 0.853 | 0.717 | 0.578 | 0.901 | 0.891 | 0.892 | 0.899 | 0.788 | 1.08 | 1.01 | 0.963 | 1.02 | 0.879 | 1.21 | 0.781
NCI-H2023 | 0.589 | 0.722 | 0.683 | 0.672 | 0.352 | 0.506 | 0.356 | 0.302 | 0.426 | 0.871 | 0.738 | 0.76 | 0.935 | 0.715 | 0.659 | 0.395 | 0.316 | 0.193 | 0.689 | 0.305
